Measured values from patent publication US20230165831A1, “METHOD AND COMPOSITION FOR RENDERING CANCER CELLS SUSCEPTIBLE TO TREATMENT BY TARGETED ONCOGENETIC DRIVERS” (IMPACT BIOLIFE SCIENCE, INC., priority 2021, published 2023).
Read-outs that look alike come from different tables or passages of the source.

What was measured:
[1] = test system: ovarian cancer line SK-OV3 cells; test: CTG (CellTiter-Glo) cell viability assay, 6×6 combo matrix, 72 h, SK-OV-3; conditions: SK-OV-3;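 also: luminescent signal read after CellTiter-Glo addition, cells exposed to compounds for 72 h at 37 °C under 5% CO2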
[2] = test system: Liver cancer line SK-HEP-1 cells;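 also: luminescent signal read after 72 h compound exposure at 37 °C under 5% CO2, with medium-only wells serving as blank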
[3] = test system: kidney cancer line 786-O cells;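 also: luminescence read-out after adding CellTiter-Glo reagent, with cells incubated at 37 °C under 5% CO2 during compound exposure, part of a ten cell line synergy study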
Experimental: (§1) To measure the cell inhibition effect of compounds and synergy effect of test articles on ten (10) cell lines using standard CTG assay.
(§2) 7) Using complete cell medium, adjust the volume of the suspension to achieve a cell concentration.
(§3) b. A549, T47D, SK-OV-3, MKN45, SK-Hep-1, HT-29, Capan-1, 786-O and LNCaP cell line, for compounds and vehicle groups, the seeding density of cell lines is 3000 cells/80 µL per well. For blank groups, add 100 µL medium. For PBS groups, add 100 µL PBS.
(§4) 8) Incubate the U87MG, A549, T47D, SK-OV-3, MKN45, SK-Hep-1, HT-29, Capan-1, 786-O and LNCaP cells overnight at 37° C./5% CO2.
(§5) Solid compound of cis-platinum was solubilized in PBS to a stock solution of 3.333 mM.
(§6) Final volume is 100 µL per well at this point.
(§7) 5) Incubate the plates at 37° C./5% CO2 for 72 hours.
(§8) 1) Incubate the plates at room temperature and away from light for 30 minutes.
(§9) 3) Add 100 µL /well of CellTiter-Glo® Reagent in each well. Avoid light.
(§10) 4) Mix contents for 2 minutes on an orbital shaker.
(§11) 5) Incubate plate at room temperature for 10 minutes to stabilize the luminescent signal.
6) Read plates in Envision.

[4] = test system: gastric cancer line MKN45 cells; test: CTG (CellTiter-Glo) cell viability assay, 6×6 combo matrix, 72 h, MKN45;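 also: MKN45 cell viability read as CellTiter-Glo luminescence after 72 h culture at 37 °C under 5% CO2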
Experimental: as §1, §2
(§12) A549, T47D, SK-OV-3, MKN45, SK-Hep-1, HT-29, Capan-1, 786-O and LNCaP cell line, for compounds and vehicle groups, the seeding density of cell lines is 3000 cells/80 µL per well. For blank groups, add 100 µL medium. For PBS groups, add 100 µL PBS.
as §4, §5, §6, §7, §8, §9, §10, §11
6) Read plates in Envision.

[5] = test system: lung adenocarcinoma line A549 cells; test: CTG (CellTiter-Glo) cell viability assay, 6×6 combo matrix, 72 h, A549; conditions: A549;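 also: luminescent ATP readout with CellTiter-Glo after compound exposure, used to assess growth inhibition and combination synergy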
Experimental: as §1, §2, §12, §4, §5, §6, §7, §8, §9, §10, §11
6) Read plates in Envision.

[6] = test system: ovarian cancer line SK-OV3 cells;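 also: luminescent signal read after CellTiter-Glo addition, cells exposed to compounds for 72 h at 37 °C under 5% CO2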
[7] = test system: kidney cancer line 786-O cells; test: CTG (CellTiter-Glo) cell viability assay, 6×6 combo matrix, 72 h, 786-O; conditions: for Relatively Cell inhibition of vehicle control(%): 786-O;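 as to all read-outs here: luminescence read-out after adding CellTiter-Glo reagent, with cells incubated at 37 °C under 5% CO2 during compound exposure, part of a ten cell line synergy study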
Experimental: as §1, §2, §3, §4, §5, §6, §7, §8, §9, §10, §11
6) Read plates in Envision.

[8] = test system: prostate adenocarcinoma line LNCap cells; test: CTG (CellTiter-Glo) cell viability assay, 6×6 combo matrix, 72 h, LNCaP; conditions: Homo sapiens, LNCaP;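 also: luminescence signal read after adding CellTiter-Glo reagent, with cells exposed to compounds for 72 h at 37 °C under 5% CO2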
Experimental: as §1, §2, §3, §4, §5, §6, §7, §8, §9, §10, §11
6) Read plates in Envision.

[9] = test system: prostate adenocarcinoma line LNCap cells;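 also: luminescence signal read after adding CellTiter-Glo reagent, with cells exposed to compounds for 72 h at 37 °C under 5% CO2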
Experimental: as §1, §2, §3, §4, §5, §6, §7, §8, §9, §10, §11
6) Read plates in Envision.

[10] = test system: colorectal cancer line HT29 cells; test: CTG (CellTiter-Glo) cell viability assay, 6×6 combo matrix, 72 h, HT29; conditions: for Relatively Cell inhibition of vehicle control(%): HT29;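 as to all read-outs here: cells exposed to compounds for 72 hours at 37 °C under 5% CO2, then viability read as luminescence after adding CellTiter-Glo Reagent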
Experimental: as §1, §2, §3, §4, §5, §6, §7, §8, §9, §10, §11
6) Read plates in Envision.

[11] = test system: Liver cancer line SK-HEP-1 cells; test: CTG (CellTiter-Glo) cell viability assay, 6×6 combo matrix, 72 h, SK-Hep-1; conditions: Homo sapiens;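 also: luminescent signal read after 72 h compound exposure at 37 °C under 5% CO2, with medium-only wells serving as blank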
[12] = test system: pancreatic cancer line Capan-1 cells; test: CTG (CellTiter-Glo) cell viability assay, 6×6 combo matrix, 72 h, Capan-1; format: cell-based; conditions: for Relatively Cell inhibition of vehicle control(%): Capan-1
Procedure, shortened: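 Capan-1 cells were seeded at 3000 cells per well and incubated overnight at 37 °C/5% CO2. They were then treated with compounds in a 6×6 combination matrix for 72 h at 37 °C/5% CO2. Viability was read by CellTiter-Glo luminescence to assess inhibition and synergy.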

[13] = test system: breast cancer line T47D cells; test: CTG (CellTiter-Glo) cell viability assay, 6×6 combo matrix, 72 h, T47D; conditions: Homo sapiens;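 also: luminescence read-out after 72 h at 37 °C under 5% CO2, with medium-only wells as blanks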
Experimental: as §1, §2, §3, §4, §5, §6, §7, §8, §9, §10, §11
6) Read plates in Envision.

[14] = test system: breast cancer line T47D cells;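 also: luminescence read-out after 72 h at 37 °C under 5% CO2, with medium-only wells as blanks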
Experimental: as §1, §2, §3, §4, §5, §6, §7, §8, §9, §10, §11
6) Read plates in Envision.

[15] = Tax 8 nM only (myricetin matrix)
[16] = Tax 40 nM only (myricetin matrix)
[17] = Tax 200 nM only (myricetin matrix)
[18] = Tax 1000 nM only (myricetin matrix)
[19] = Homo sapiens, 786-0, read-out: Relatively Cell inhibition of vehicle control
[20] = Homo sapiens, HT-29, read-out: Relatively Cell inhibition of vehicle control(%)

SMILES: CC(=O)O[C@H]1C(=O)[C@@]2(C)[C@H]([C@H](OC(=O)c3ccccc3)[C@]3(O)C[C@H](OC(=O)[C@H](O)[C@@H](NC(=O)c4ccccc4)c4ccccc4)C(C)=C1C3(C)C)[C@]1(OC(C)=O)CO[C@@H]1C[C@@H]2O [taxol, paclitaxel]
- Relatively Cell inhibition of vehicle control(%) ([1]; Tax 8 nM only (LB-1 matrix)): 41.59%
- Relatively Cell inhibition of vehicle control(%) [1, 15]: 39.88%
- Relatively Cell inhibition of vehicle control(%) ([1]; Tax 40 nM only (LB-1 matrix)): 54.31%
- Relatively Cell inhibition of vehicle control(%) [1, 16]: 52.55%
- Relatively Cell inhibition of vehicle control(%) ([1]; Tax 200 nM only (LB-1 matrix)): 71.38%
- Relatively Cell inhibition of vehicle control(%) [1, 17]: 68.68%
- Relatively Cell inhibition of vehicle control(%) ([1]; Tax 1000 nM only (LB-1 matrix)): 76.39%
- Relatively Cell inhibition of vehicle control(%) [1, 18]: 73.38%
- inhibition [2]: 0.78%
- inhibition [3]: 3.15%
- Relatively Cell inhibition of vehicle control(%) ([4]; Tax 8 nM only (LB-1 0)): 52.04%
- Relatively Cell inhibition of vehicle control(%) ([4]; Tax 8 nM only (Myr 0)): 50.47%
- Relatively Cell inhibition of vehicle control(%) ([4]; Tax 40 nM only (LB-1 0)): 48.11%
- Relatively Cell inhibition of vehicle control(%) ([4]; Tax 40 nM only (Myr 0)): 56.30%
- Relatively Cell inhibition of vehicle control(%) ([4]; Tax 200 nM only (LB-1 0)): 64.94%
- Relatively Cell inhibition of vehicle control(%) ([4]; Tax 200 nM only (Myr 0)): 68.16%
- Relatively Cell inhibition of vehicle control(%) ([4]; Tax 1000 nM only (LB-1 0)): 70.65%
- Relatively Cell inhibition of vehicle control(%) ([4]; Tax 1000 nM only (Myr 0)): 69.93%
- Relatively Cell inhibition of vehicle control(%) ([5]; Tax 8 nM only (LB-1 matrix)): 55.11%
- Relatively Cell inhibition of vehicle control(%) [5, 15]: 53.76%
- Relatively Cell inhibition of vehicle control(%) ([5]; Tax 40 nM only (LB-1 matrix)): 68.79%
- Relatively Cell inhibition of vehicle control(%) [5, 16]: 68.03%
- Relatively Cell inhibition of vehicle control(%) ([5]; Tax 200 nM only (LB-1 matrix)): 77.44%
- Relatively Cell inhibition of vehicle control(%) [5, 17]: 75.24%
- Relatively Cell inhibition of vehicle control(%) ([5]; Tax 1000 nM only (LB-1 matrix)): 76.64%
- Relatively Cell inhibition of vehicle control(%) [5, 18]: 77.27%
- inhibition [6]: 17.4%
- inhibition at 0.008 µM [7, 19]: 12.2%
- inhibition at 0.04 µM [7, 19]: 42.6%
- inhibition at 0.2 µM [7, 19]: 70%
- inhibition at 1 µM [7, 19]: 74.1%
- Relatively Cell inhibition of vehicle control(%) ([7]; Tax 8 nM only (LB-1 0)): 12.57%
- Relatively Cell inhibition of vehicle control(%) ([7]; Tax 40 nM only (LB-1 0)): 43.18%
- Relatively Cell inhibition of vehicle control(%) ([7]; Tax 200 nM only (LB-1 0)): 69.53%
- Relatively Cell inhibition of vehicle control(%) ([7]; Tax 1000 nM only (LB-1 0)): 73.05%
- inhibition at 0.008 µM ([8]; read-out: Relatively Cell inhibition of vehicle control(%), taxol 8 nM only (LB-1 plate)): 54%
- inhibition at 0.008 µM ([8]; read-out: Relatively Cell inhibition of vehicle control(%), taxol 8 nM only (myricetin plate)): 62.6%
- inhibition at 0.04 µM ([8]; read-out: Relatively Cell inhibition of vehicle control(%), taxol 40 nM only (LB-1 plate)): 59.2%
- inhibition at 0.04 µM ([8]; read-out: Relatively Cell inhibition of vehicle control(%), taxol 40 nM only (myricetin plate)): 65.5%
- inhibition at 0.2 µM ([8]; read-out: Relatively Cell inhibition of vehicle control(%), taxol 200 nM only (LB-1 plate)): 56.4%
- inhibition at 0.2 µM ([8]; read-out: Relatively Cell inhibition of vehicle control(%), taxol 200 nM only (myricetin plate)): 62.2%
- inhibition at 1 µM ([8]; read-out: Relatively Cell inhibition of vehicle control(%), taxol 1000 nM only (LB-1 plate)): 48.8%
- inhibition at 1 µM ([8]; read-out: Relatively Cell inhibition of vehicle control(%), taxol 1000 nM only (myricetin plate)): 55.6%
- inhibition [9]: 9.88%
- inhibition at 0.008 µM [10, 20]: 67.9%
- inhibition at 0.04 µM [10, 20]: 83.4%
- inhibition at 0.2 µM [10, 20]: 83.1%
- inhibition at 1 µM [10, 20]: 82%
- Relatively Cell inhibition of vehicle control(%) ([10]; Tax 8 nM only (Myr 0)): 73.73%
- Relatively Cell inhibition of vehicle control(%) ([10]; Tax 40 nM only (Myr 0)): 80.46%
- Relatively Cell inhibition of vehicle control(%) ([10]; Tax 200 nM only (Myr 0)): 81.35%
- Relatively Cell inhibition of vehicle control(%) ([10]; Tax 1000 nM only (Myr 0)): 79.03%
- inhibition at 0.008 µM ([11]; SK-HEP1, read-out: Relatively Cell inhibition of vehicle control, taxol 8 nM only (LB-1 table)): 30.6%
- inhibition at 0.008 µM ([11]; SK-HEP1, read-out: Relatively Cell inhibition of vehicle control, taxol 8 nM only (myricetin table)): 36%
- inhibition at 0.04 µM ([11]; SK-HEP1, read-out: Relatively Cell inhibition of vehicle control, taxol 40 nM only (LB-1 table)): 59.5%
- inhibition at 0.04 µM ([11]; SK-HEP1, read-out: Relatively Cell inhibition of vehicle control, taxol 40 nM only (myricetin table)): 62.4%
- inhibition at 0.2 µM ([11]; SK-HEP1, read-out: Relatively Cell inhibition of vehicle control, taxol 200 nM only (LB-1 table)): 68.8%
- inhibition at 0.2 µM ([11]; SK-HEP1, read-out: Relatively Cell inhibition of vehicle control, taxol 200 nM only (myricetin table)): 65.2%
- inhibition at 1 µM ([11]; SK-HEP1, read-out: Relatively Cell inhibition of vehicle control, taxol 1000 nM only (LB-1 table)): 78%
- inhibition at 1 µM ([11]; SK-HEP1, read-out: Relatively Cell inhibition of vehicle control, taxol 1000 nM only (myricetin table)): 78.8%
- inhibition at […] ([12]; Homo sapiens, CAPAN-1, taxol 1.6 nM only, read-out: Relatively Cell inhibition of vehicle control): 17.2%
- inhibition at 0.008 µM ([12]; Homo sapiens, CAPAN-1, taxol 8 nM only, read-out: Relatively Cell inhibition of vehicle control): 54.3%
- inhibition at 0.04 µM ([12]; Homo sapiens, CAPAN-1, taxol 40 nM only, read-out: Relatively Cell inhibition of vehicle control): 65.8%
- inhibition at 0.2 µM ([12]; Homo sapiens, CAPAN-1, taxol 200 nM only, read-out: Relatively Cell inhibition of vehicle control): 65.4%
- inhibition at 1 µM ([12]; Homo sapiens, CAPAN-1, taxol 1000 nM only, read-out: Relatively Cell inhibition of vehicle control): 67.2%
- Relatively Cell inhibition of vehicle control(%) ([12]; Tax 8 nM only): 51.97%
- Relatively Cell inhibition of vehicle control(%) ([12]; Tax 40 nM only): 62.89%
- Relatively Cell inhibition of vehicle control(%) ([12]; Tax 200 nM only): 63.24%
- Relatively Cell inhibition of vehicle control(%) ([12]; Tax 1000 nM only): 64.00%
- inhibition at 0.008 µM ([13]; read-out: Relatively Cell inhibition of vehicle control(%), T47D, 8 nM taxol only (LB-1 0)): 33.2%
- inhibition at 0.008 µM ([13]; read-out: Relatively Cell inhibition of vehicle control(%), T47D, 8 nM taxol only (myricetin 0)): 40.8%
- inhibition at 0.04 µM ([13]; read-out: Relatively Cell inhibition of vehicle control(%), T47D, 40 nM taxol only (LB-1 0)): 42.2%
- inhibition at 0.04 µM ([13]; read-out: Relatively Cell inhibition of vehicle control(%), T47D, 40 nM taxol only (myricetin 0)): 48.6%
- inhibition at 0.2 µM ([13]; read-out: Relatively Cell inhibition of vehicle control(%), T47D, 200 nM taxol only (LB-1 0)): 42%
- inhibition at 0.2 µM ([13]; read-out: Relatively Cell inhibition of vehicle control(%), T47D, 200 nM taxol only (myricetin 0)): 48.5%
- inhibition at 1 µM ([13]; read-out: Relatively Cell inhibition of vehicle control(%), T47D, 1000 nM taxol only (LB-1 0)): 38%
- inhibition at 1 µM ([13]; read-out: Relatively Cell inhibition of vehicle control(%), T47D, 1000 nM taxol only (myricetin 0)): 45.8%
- inhibition [14]: 17%
